Measured values reported in US20240156856A1, “NOVEL APPLICATIONS OF HYALURONIC ACID FOR TREATMENT OF PAIN AND PRURITIS” (THE REGENTS OF THE UNIVERSITY OF CALIFORNIA, priority 2022, published 2024).

System: rats with paclitaxel CIPN
Assay: Paclitaxel CIPN mechanical hyperalgesia, Randall-Selitto paw-withdrawal test
Type: in vivo, Sprague-Dawley rats
Experimental: Experimental animals. Experiments were performed on 220-400 g male and female Sprague-Dawley rats, purchased from Charles River Laboratories (Hollister, CA, USA), housed three per cage, under a 12-hour light/dark cycle, in a temperature- and humidity-controlled animal care facility at the University of California, San Francisco. Food and water were available ad libitum. Experimental protocols were approved by the University of California, San Francisco, Institutional Animal Care and Use Committee, and adhered to the National Institutes of Health Guidelines for the care and use of laboratory animals.
Measurement of nociceptive threshold. Mechanical nociceptive threshold was quantified with an Ugo Basile Analgesymeter (Stoelting, Wood Dale, IL, USA), used to perform the Randall-Selitto paw-withdrawal test [61; 68; 69]. This device uses a dome-shaped plinth to apply a mechanical force that increases linearly with time, to the dorsum of a rat's hindpaw. To perform the Randall-Selitto paw-withdrawal test, rats were placed in cylindrical acrylic restrainers with lateral ports that allow access to the hind paw, as described previously. Rats were acclimatized to the testing procedure by placing them in restrainers for 1 h per day for 3 consecutive daily training sessions, and for 30-40 min prior to experiments.
Mechanical nociceptive threshold is defined as the force, in grams, applied by the plinth to the dorsum of the hindpaw, at which a rat withdraws its paw from the stimulus. Baseline paw-withdrawal threshold is defined as the mean of three readings taken before administration of test agents. To minimize experimenter bias, individuals conducting experiments were blinded to experimental treatments. Each experiment was performed on a different group of rats. Data are presented as mechanical nociceptive threshold, in grams (g) or percentage change from preintervention baseline.
Hyaluronans were initially dissolved in distilled water (dH2O) at a concentration of 10 μg/μL, stock solution, and further diluted by adding DMSO with three final concentrations of hyaluronan (1, 2 and 4 μg/μL), protamine or terpene; unless otherwise stated, the final concentration of DMSO was 75%. The DMSO vehicle was 75% DMSO in 0.9% saline. In one experiment, 500-1200 kDa hyaluronan was administered topically in 0.9% saline vehicle. PGE2 was dissolved in 0.9% saline at the same final concentration that we previously injected intradermally (100 ng/5 μL). In the experiments in which hyaluronan was dissolved in protamine or terpene vehicle, protamine was first dissolved in distilled water (dH2O) to a concentration of 5 μg/μ1, stock solution of hyaluronan was combined with protamine at the final concentration of 2 μg/μ1, in a volume of 3 μl, for topical administration; terpene was first dissolved in dH2O at the concentration of 2 μg/μ1, then hyaluronan was dissolved in stock solution of terpene to its final concentration of 2 μg/μ1, in a volume of 3 μl, for topical administration).
Paclitaxel CIPN: Paclitaxel was dissolved in Cremophor EL and ethanol (1:1) [1; 6; 20; 22] and diluted in 0.9% saline to a concentration of 1 mg/mL, just prior to its intraperitoneal (i.p.) administration (1 mg/kg, i.p.) [19; 42] to rats briefly anesthetized with isoflurane (2.5% in O2), every other day for a total of 4 doses.
Hyaluronans (30 μL) were administered topically on the dorsum of the hind paw, dispensed from a P200 pipette (Gilson, Middleton, WI, USA) with a plastic pipette tip and then spread manually.
Antisense oligodeoxynucleotides (ODNs).
Before use, ODNs were reconstituted in nuclease-free 0.9% saline and then administered by the intrathecal (i.t.) route. As described previously, rats were anesthetized with isoflurane (2.5% in O2) and 120 μg of ODN, in a volume of 20 μL, injected i.t., using a syringe ([…]) attached to a 29-gauge hypodermic needle that was inserted into the subarachnoid space, between the L4 and L5 vertebrae. […]

## hyaluronan [500-1200 kDa hyaluronan]
Female rats given i.t. GPR30 antisense or mismatch ODN, topical 2 μg/μL, 30 μL
  hyperalgesia induced by paclitaxel: only attenuated the hyperalgesia induced by paclitaxel in the GPR30 antisense-treated group
Gonad intact female rats, topical 2 μg/μL, 30 μL in DMSO vehicle
  hyperalgesia induced by paclitaxel: did not attenuate hyperalgesia
Male rats given i.t. CD44 antisense or mismatch ODN, topical 2 μg/μL, 30 μL in DMSO
  hyperalgesia induced by paclitaxel: attenuated the hyperalgesia induced by paclitaxel only in the CD44 mismatch-treated group
Male rats, reapplied at the same site after first effect wore off, DMSO vehicle
  time at which anti-hyperalgesia was still present after the second administration: ≥ 180 min
Male rats, topical 2 μg/μL, 30 μL in DMSO, day 7
  hyperalgesia induced by paclitaxel: attenuated the hyperalgesia induced by paclitaxel
Male rats, topical 2 μg/μL, 30 μL in DMSO, repeated-administration experiment
  time by which anti-hyperalgesia dissipated, first administration: ≤ 120 min
Ovariectomized female rats, topical 2 μg/μL, 30 μL in DMSO
  anti-hyperalgesia in paclitaxel-induced CIPN: induced anti-hyperalgesia of similar magnitude to that observed in gonad intact male rats
